Experimental data taken from patent US7060721B1, “Imidazole compounds and medicinal use thereof” (Fujisawa Pharmaceutical Co., Ltd., priority 1998, dated 2006).

System: db/db mice
Assay: Blood sugar level depressing activity in db/db mice
Format: in vivo
Conditions: female db/db mice; dose 3.2 mg/kg; drug-mixed diet given for 14 days; difference between db/db control group and +/+ mice taken as 100%
Method: (Blood Sugar Level Depressing Activity in db/db Mice)
Female C57BL/KsJ-dbm db+/db+, C57BL/KsJ-dbm +m/+m (Jackson Laboratory) mice (5 weeks old) were purchased and subjected to the test after 2–3 weeks of acclimating period.
The test drug was mixed with a powder diet (CE-2, Clea Japan, Inc.) in a mortar. In the case of administration in 100 mg/kg, the mixing proportion was 0.1%, in the case of 30 mg/kg, the proportion was 0.03% and in the case of 10 mg/kg, the proportion was 0.01%. The diet was changed twice a week for each group. The amount of the diet given and the amount left were recorded and the diet intake was calculated by determining the difference.
The female db/db mice were grouped according to body weight, blood sugar level and triglyceride concentration in plasma. […] The blood sugar value, triglyceride concentration in plasma and insulin concentration in plasma were measured at day 0 and day 14, and blood sugar value and triglyceride concentration in plasma were measured at day 7. Body weight was measured at day 0, day 7 and day 14. […]
Blood sugar value was measured using 10–15 μl of plasma and in accord with glucose oxidase method (glucose CII-Test Wako, Wako Pure Chemicals Co., Ltd.). The triglyceride concentration in plasma was measured using 10–15 μl of plasma and in accord with GPO-p-chlorophenol method (triglyceride G-Test Wako) or GPO-DAOS method (triglyceride E-Test Wako). […]

Compound	Blood sugar decrease (%)
Cc1ccc(S(=O)(=O)NC(=O)/C=C/c2c(Cl)nc(C)n2Cc2ccc(-c3ccccc3)cc2Cl)cc1 [Compound A, (E)-3-[4-chloro-1-(2-chloro-4-phenylbenzyl)-2-methylimidazol-5-yl]-N-((4-methylbenzene)sulfonyl)-2-propenamide]	63

System: not given
Assay: not given
Conditions: not given

Compound	melting point [°C]
CCCCCS(=O)(=O)NC(=O)/C=C/c1c(Cl)nc(CC)n1Cc1ccc(C#Cc2ccccc2)cc1Cl [Example 57, (E)-3-(4-chloro-1-(2-chloro-4-(phenylethynyl)benzyl)-2-ethylimidazol-5-yl)-N-(1-pentanesulfonyl)-2-propenamide]	161 to 163
CCC/C=C/S(=O)(=O)NC(=O)/C=C/c1c(Cl)nc(CC)n1Cc1ccc(C#Cc2ccccc2)cc1Cl [Example 58, (E)-3-(4-chloro-1-(2-chloro-4-(phenylethynyl)benzyl)-2-ethylimidazol-5-yl)-N-((E)-1-penten-1-ylsulfonyl)-2-propenamide]	173 to 175
CCc1nc(Cl)c(/C=C/C(=O)NS(=O)(=O)c2ccc(C)cc2)n1Cc1ccc(/C=C/c2ccccc2)cc1Cl [Example 60, (E)-3-(4-chloro-1-(2-chloro-4-((E)-2-phenylethenyl)benzyl)-2-ethylimidazol-5-yl)-N-(4-methylbenzenesulfonyl)-2-propenamide]	250 to 252
CCCCS(=O)(=O)NC(=O)/C=C/c1c(Cl)nc(CC)n1Cc1ccc(/C=C/c2ccccc2)cc1Cl [Example 61, (E)-N-(1-butanesulfonyl)-3-(4-chloro-1-(2-chloro-4-((E)-2-phenylethenyl)benzyl)-2-ethylimidazol-5-yl)-2-propenamide]	210 to 213
CCCCCS(=O)(=O)NC(=O)/C=C/c1c(Cl)nc(CC)n1Cc1ccc(/C=C/c2ccccc2)cc1Cl [Example 62, (E)-3-(4-chloro-1-(2-chloro-4-((E)-2-phenylethenyl)benzyl)-2-ethylimidazol-5-yl)-N-(1-pentanesulfonyl)-2-propenamide]	197 to 200
CCC/C=C/S(=O)(=O)NC(=O)/C=C/c1c(Cl)nc(CC)n1Cc1ccc(/C=C/c2ccccc2)cc1Cl [Example 63, (E)-3-(4-chloro-1-(2-chloro-4-((E)-2-phenylethenyl)benzyl)-2-ethylimidazol-5-yl)-N-((E)-1-penten-1-ylsulfonyl)-2-propenamide]	197 to 200
Cc1nc(C)n(Cc2ccc(Br)cc2Cl)c1/C=C/C(=O)NS(=O)(=O)/C=C/c1ccccc1 [Example 64, (E)-3-(1-(4-bromo-2-chlorobenzyl)-2,4-dimethylimidazol-5-yl)-N-((E)-2-phenylethenesulfonyl)-2-propenamide]	251 to 253
CCCCCOc1ccc(Cn2c(C)nc(Br)c2/C=C/C(=O)NS(=O)(=O)/C=C/c2ccccc2)c(Cl)c1 [Example 65, (E)-3-(4-bromo-1-(2-chloro-4-(1-pentyloxy)benzyl)-2-methylimidazol-5-yl)-N-((E)-2-phenylethenesulfonyl)-2-propenamide]	208 to 209
CCCCCOc1ccc(Cn2c(/C=C(\Cc3ccccc3)C(=O)NS(=O)(=O)/C=C/c3ccccc3)cnc2C)c(Cl)c1 [Example 67, (E)-2-benzyl-3-(1-(2-chloro-4-(1-pentyloxy)benzyl)-2-methylimidazol-5-yl)-N-((E)-2-phenylethenesulfonyl)-2-propenamide]	171 to 172
CCCCCOc1ccc(Cn2c(/C=C(\CCCCC)C(=O)NS(=O)(=O)/C=C/c3ccccc3)cnc2C)c(Cl)c1 [Example 68, (E)-3-(1-(2-chloro-4-(1-pentyloxy)benzyl)-2-methylimidazol-5-yl)-2-(1-pentyl)-N-((E)-2-phenylethenesulfonyl)-2-propenamide]	168 to 169
CCCCCOc1ccc(Cn2c(/C=C(\Cc3cccnc3)C(=O)NS(=O)(=O)/C=C/c3ccccc3)cnc2C)c(Cl)c1 [Example 69, (E)-3-(1-(2-chloro-4-(1-pentyloxy)benzyl)-2-methylimidazol-5-yl)-2-((3-pyridyl)methyl)-N-((E)-2-phenylethenesulfonyl)-2-propenamide]	156 to 158
CCCCCOc1ccc(Cn2c(/C=C(\C)C(=O)NS(=O)(=O)/C=C/c3ccccc3)cnc2C)c(Cl)c1 [Example 70, (E)-3-(1-(2-chloro-4-(1-pentyloxy)benzyl)-2-methylimidazol-5-yl)-2-methyl-N-((E)-2-phenylethenesulfonyl)-2-propenamide]	143 to 145
CCCCCOc1ccc(Cn2c(C)nc(Cl)c2/C=C(\C)C(=O)NS(=O)(=O)/C=C/c2ccccc2)c(Cl)c1 [Example 71, (E)-3-(4-chloro-1-(2-chloro-4-(1-pentyloxy)benzyl)-2-methylimidazol-5-yl)-2-methyl-N-((E)-2-phenylethenesulfonyl)-2-propenamide]	156 to 157
CCCCCOc1ccc(Cn2c(C)nc(Cl)c2C(=O)NS(=O)(=O)/C=C/c2ccccc2)c(Cl)c1 [Example 72, 4-chloro-1-(2-chloro-4-(1-pentyloxy)benzyl)-2-methyl-5-((E)-2-phenylethenesulfonyl-carbamoyl)-1H-imidazole]	107 to 110
CCCCCOc1ccc(Cn2c(C)nc(Cl)c2COC(=O)NS(=O)(=O)c2ccc(C)cc2)c(Cl)c1 [Example 73, (4-chloro-1-(2-chloro-4-(1-pentyloxy)benzyl)-2-methyl-1H-imidazol-5-yl)methyl N-(4-methylbenzenesulfonyl)carbamate]	109 to 111
